Data published in ChEMBL document CHEMBL5614413, “Design, synthesis and biological evaluation of amphiphilic benzopyran derivatives as potent antibacterial agents against multidrug-resistant bacteria” (Eur J Med Chem, 2024).
Values after ≈ are worked out from the molar mass of the structure shown.

Columns and labels:
Acinetobacter baumannii = assay: Antibacterial activity against Acinetobacter baumannii ATCC 19606; assay type: functional
Escherichia coli = assay: Antibacterial activity against penicillin-susceptible Escherichia coli ATCC 25922; assay type: functional
Enterococcus faecalis = assay: Antibacterial activity against vancomycin-susceptible Enterococcus faecalis ATCC 29212; assay type: functional
Staphylococcus aureus [1] = assay: Antibacterial activity against methicillin-resistant Staphylococcus aureus ATCC 43300; assay type: functional
Staphylococcus aureus [2] = assay: Antibacterial activity against erythromycin-susceptible Staphylococcus aureus ATCC 25923; assay type: functional
Staphylococcus aureus [3] = assay: Antibacterial activity against penicillin-resistant Staphylococcus aureus ATCC 31007; assay type: functional
[4] = Hemolytic activity in sheep RBC; assay type: toxicity, cell-based, Ovis aries, Erythrocyte; conditions: sheep red blood cells (erythrocytes)
[5] = Selectivity index, ratio of HC50 for hemolytic activity in sheep RBC to MIC for antibacterial activity against methicillin-resistant Staphylococcus aureus ATCC 43300; assay type: toxicity; conditions: sheep red blood cells (erythrocytes), read-out: Selectivity Index
Bacillus subtilis = assay: Antibacterial activity against penicillin-susceptible Bacillus subtilis ATCC 9372; assay type: functional
[6] = system: Staphylococcus epidermidis; assay: Antibacterial activity erythromycin-susceptible Staphylococcus epidermidis ATCC 12228; assay type: functional
Klebsiella pneumoniae = assay: Antibacterial activity against Klebsiella pneumoniae ATCC 10031; assay type: functional
Pseudomonas aeruginosa = assay: Antibacterial activity against penicillin-susceptible Pseudomonas aeruginosa ATCC 27853; assay type: functional

Compound | MIC (Acinetobacter baumannii) | MIC (Escherichia coli) | MIC (Enterococcus faecalis) | MIC (Staphylococcus aureus [1]) | MIC (Staphylococcus aureus [2]) | MIC (Staphylococcus aureus [3]) | HC50 [4] | selectivity ratio [5] | MIC (Bacillus subtilis) | MIC [6] | MIC (Klebsiella pneumoniae) | MIC (Pseudomonas aeruginosa)
CC(=O)c1ccc2c(c1OCCCNCCCN1CCN(C)CC1)C=CC(C)(CCC=C(C)C)O2 (configuration not stated) | 16 µg/mL (≈ 33.1 µM) | 16 µg/mL (≈ 33.1 µM) | 16 µg/mL (≈ 33.1 µM) | 16 µg/mL (≈ 33.1 µM) | 16 µg/mL (≈ 33.1 µM) | 16 µg/mL (≈ 33.1 µM) | 168 µg/mL | 10.5 | 16 µg/mL (≈ 33.1 µM) | 8 µg/mL (≈ 16.5 µM) | 16 µg/mL (≈ 33.1 µM) | 32 µg/mL (≈ 66.2 µM)
CNCCCOc1c(C(C)=O)ccc2c1C=CC(C)(CCC=C(C)C)O2 (configuration not stated) | 8 µg/mL (≈ 22.4 µM) | 16 µg/mL (≈ 44.8 µM) | 4 µg/mL (≈ 11.2 µM) | 16 µg/mL (≈ 44.8 µM) | 8 µg/mL (≈ 22.4 µM) | 8 µg/mL (≈ 22.4 µM) | 90.1 µg/mL |  | 8 µg/mL (≈ 22.4 µM) | 4 µg/mL (≈ 11.2 µM) | 16 µg/mL (≈ 44.8 µM) | 64 µg/mL (≈ 179 µM)
CCNCCCOc1ccc(/C=C/C(=O)c2ccc3c(c2OC)C=CC(C)(CCC=C(C)C)O3)cc1 (configuration not stated) | > 128 µg/mL | > 128 µg/mL | 4 µg/mL (≈ 8.17 µM) | 8 µg/mL (≈ 16.3 µM) | 8 µg/mL (≈ 16.3 µM) | 8 µg/mL (≈ 16.3 µM) | 59.9 µg/mL | 7.5 | 8 µg/mL (≈ 16.3 µM) | 1 µg/mL (≈ 2.04 µM) | 32 µg/mL (≈ 65.4 µM) | > 128 µg/mL
CNCCCOc1ccc(/C=C/C(=O)c2ccc3c(c2OC)C=CC(C)(CCC=C(C)C)O3)cc1 (configuration not stated) | > 128 µg/mL | > 128 µg/mL | 4 µg/mL (≈ 8.41 µM) | 16 µg/mL (≈ 33.6 µM) | 8 µg/mL (≈ 16.8 µM) | 8 µg/mL (≈ 16.8 µM) | 90.5 µg/mL | 5.6 | 4 µg/mL (≈ 8.41 µM) | 1 µg/mL (≈ 2.1 µM) | 32 µg/mL (≈ 67.3 µM) | > 128 µg/mL
CC(=O)c1c(OCCCN2CCOCC2)c2c(c3c1OC(C)(CCC=C(C)C)C=C3)OC(C)(CCC=C(C)C)C=C2 (configuration not stated) | > 128 µg/mL | > 128 µg/mL | > 128 µg/mL | > 128 µg/mL | > 128 µg/mL | > 128 µg/mL | > 128 µg/mL | < 10 | > 128 µg/mL | > 128 µg/mL | > 128 µg/mL | > 128 µg/mL
CC(=O)c1ccc2c(c1OCC(=O)NCCCN1CCN(C)CC1)C=CC(C)(CCC=C(C)C)O2 (configuration not stated) | 128 µg/mL (≈ 265 µM) | > 128 µg/mL | 128 µg/mL (≈ 265 µM) | 128 µg/mL (≈ 265 µM) | 128 µg/mL (≈ 265 µM) | 128 µg/mL (≈ 265 µM) | 220 µg/mL | 1.7 | > 128 µg/mL | 128 µg/mL (≈ 265 µM) | 128 µg/mL (≈ 265 µM) | > 128 µg/mL
CC(=O)c1c(OCCCN(C)C)c2c(c3c1OC(C)(CCC=C(C)C)C=C3)OC(C)(CCC=C(C)C)C=C2 (configuration not stated) | > 128 µg/mL | > 128 µg/mL | 1 µg/mL (≈ 1.92 µM) | 4 µg/mL (≈ 7.67 µM) | 2 µg/mL (≈ 3.83 µM) | 2 µg/mL (≈ 3.83 µM) | 64 µg/mL | 16 | 2 µg/mL (≈ 3.83 µM) | 1 µg/mL (≈ 1.92 µM) | > 128 µg/mL | > 128 µg/mL
COLISTIN | 1 µg/mL | 0.5 µg/mL | 128 µg/mL | 128 µg/mL | 128 µg/mL | 128 µg/mL |  |  | 16 µg/mL | 64 µg/mL | 1 µg/mL | 0.5 µg/mL
CC(=O)c1ccc2c(c1OCCCN1CCCC1)C=CC(C)(CCC=C(C)C)O2 (configuration not stated) | 32 µg/mL (≈ 80.5 µM) | > 128 µg/mL | 16 µg/mL (≈ 40.2 µM) | 16 µg/mL (≈ 40.2 µM) | 32 µg/mL (≈ 80.5 µM) | 16 µg/mL (≈ 40.2 µM) | 366 µg/mL |  | 16 µg/mL (≈ 40.2 µM) | 8 µg/mL (≈ 20.1 µM) | 8 µg/mL (≈ 20.1 µM) | > 128 µg/mL
CC(=O)c1ccc2c(c1OCCCN1CCOCC1)C=CC(C)(CCC=C(C)C)O2 (configuration not stated) | 128 µg/mL (≈ 310 µM) | > 128 µg/mL | > 128 µg/mL | > 128 µg/mL | > 128 µg/mL | > 128 µg/mL | 560 µg/mL | < 4.4 | 128 µg/mL (≈ 310 µM) | > 128 µg/mL | > 128 µg/mL | > 128 µg/mL
CC(=O)c1ccc2c(c1OCCCN(C)CCCN(C)C)C=CC(C)(CCC=C(C)C)O2 (configuration not stated) | 8 µg/mL (≈ 18.1 µM) | 8 µg/mL (≈ 18.1 µM) | 16 µg/mL (≈ 36.1 µM) | 16 µg/mL (≈ 36.1 µM) | 16 µg/mL (≈ 36.1 µM) | 32 µg/mL (≈ 72.3 µM) | 160 µg/mL | 10 | 16 µg/mL (≈ 36.1 µM) | 16 µg/mL (≈ 36.1 µM) | 8 µg/mL (≈ 18.1 µM) | 32 µg/mL (≈ 72.3 µM)
CC(=O)c1ccc2c(c1OCC(=O)N(CCCN)CCCN)C=CC(C)(CCC=C(C)C)O2.Cl.Cl (configuration not stated) | > 128 µg/mL | > 128 µg/mL | > 128 µg/mL | 128 µg/mL | > 128 µg/mL | > 128 µg/mL | 1670 µg/mL | 13 | 32 µg/mL | 128 µg/mL | > 128 µg/mL | > 128 µg/mL
COc1c(C(=O)/C=C/c2ccc(OCCCNCCN(C)C)cc2)ccc2c1C=CC(C)(CCC=C(C)C)O2 (configuration not stated) | 8 µg/mL (≈ 15 µM) | 4 µg/mL (≈ 7.51 µM) | 2 µg/mL (≈ 3.75 µM) | 4 µg/mL (≈ 7.51 µM) | 8 µg/mL (≈ 15 µM) | 4 µg/mL (≈ 7.51 µM) | 270 µg/mL | 67.6 | 2 µg/mL (≈ 3.75 µM) | 2 µg/mL (≈ 3.75 µM) | 16 µg/mL (≈ 30 µM) | 128 µg/mL (≈ 240 µM)
